Six molecules from patent publication US8063018B2, “Bivalent thrombin binding molecules comprising linkers” (National Research Council of Canada, priority 2004, dated 2011) can be followed below.

Experiment [1] concerns the target T1, thrombin (Homo sapiens, UniProt P00734). The experiment can be described thus: Fibrinogen clotting assay catalyzed by thrombin. Type of experiment: biochemical. Particulars: concentration needed to double the clotting time. As for the experimental part:
Curves represent OD420 time course after the addition of 0.6 nM thrombin in the presence of (♦) 0 nM; (◯) 0.5 nM; (□) 1 nM; (Δ) 1.5 nM; (⋄) 2.5 nM; (●) 3.75 nM; (▪) 6.25 nM; and (▴) […] of the inhibitor with linker (GS)n and n=2 (SEQ. ID. NO. 50) (a); n=4 (SEQ. ID. NO. 51) (b); n=6 (SEQ. ID. NO. 52) (c); n=8 (SEQ. ID. NO. 53) (d); n=10 (SEQ. ID. NO. 54) (e); and in the presence of (♦) 0 nM; (◯) 1 nM; (□) 2 nM; (Δ) 4 nM; (⋄) 6 nM; (●) 10 nM; (▪) 15 nM; and (▴) 25 nM of the inhibitor with linker (GS)n and n=12 (SEQ. ID. NO. 55) (f); n=14 (SEQ. ID. NO. 56) (g), at 37° C. The onset clotting time was determined as an intersection of the baseline and the extrapolated linear portion of the OD change curve. […] Curves (i) represent OD420 time course in the presence of (A) 0 nM; (◯) 1 nM; (□) 2 nM; (Δ) 4 nM; (⋄) 6 nM; and (●) 15 nM of the inhibitor with linker […] (SEQ. ID. NO. 103), at 37° C. […] represent OD420 time course in the presence of (◯) 0 nM; (□) 2 nM; (Δ) 4 nM; (⋄) 6 nM; (●) 8 nM; (▪) 10 nM; (▴) 12 nM; and (♦) 15 nM; of the inhibitor with linker […] (SEQ. ID. NO. 58) at 25° C. Curves (k) represent OD420 time course in the presence of (◯) 0 nM; (□) 0.5 nM; (Δ) 1 nM; (⋄) 2 nM; (●) 3 nM; (▪) 4 nM; (▴) 5 nM; and (♦) 6 nM; of the inhibitor with linker […] (SEQ. ID. NO. 105) at 37° C. Curves (I) represent OD420 time course in the presence of (◯) 0 nM; (□) 0.25 nM; (Δ) 0.5 nM; (⋄) 1 nM; (●) 1.5 nM; (▪) 2 nM; and (▴) 2.5 nM; of the inhibitor with linker […] (SEQ. ID. NO. 104) at 37° C. Curves (m) represent OD420 time course in the presence of (◯) 0 nM; (□) 2 nM; (Δ) 4 nM; (⋄) 6 nM; (●) 8 nM; (▴) 10 nM; and (A) 12 nM; of the inhibitor with linker […] (SEQ. ID. NO. 106) at 37° C. Curves (n) represent OD420 time course in the presence of (◯) 0 nM; (□) 1 nM; (Δ) 2 nM; (⋄) 3 nM; (●) 4 nM; (▪) 5 nM; (▴) 6 nM; and (♦) 7 nM; of the inhibitor with linker […] (SEQ. ID. NO. 107) at 37° C. Curves (o) represent OD420 time course in the presence of (◯) 0 nM; (□) 4 nM; and (Δ) 8 nM; of the inhibitor with linker GQSHNR (SEQ. ID. NO. 108) at 37° C.
Other experimental conditions were as used for the assays described in FIG. 2.
(§1) Clotting assays were carried out by use of the protocols described previously (DiMaio and others, 1990, 21698-21703; Witting and others, 1992, 737-743). The assay employs bovine plasma fibrinogen dissolved at 0.1% in 50 mM Tris-Cl, 100 mM NaCl, 0.1% PEG-8000 at pH 7.6 (i.e. the clotting buffer). Each assay mixture contained a certain concentration of the peptide, and the reaction was started by the addition of human thrombin to a final concentration of 0.6-1.2 nM. Optical absorbance increase at 420 nm caused by fibrin clot formation was measured at 25° C. or 37° C. using the Spectramax plate reader. The onset clotting time was determined as an intersection of the baseline and the extrapolated linear portion of the OD change curve. The concentration of a peptide needed to double the clotting time was defined as IC50 (DiMaio and others, 1990, 21698-21703). Kinetic amidolytic curves were obtained in clotting buffer at 25° C. using eight inhibitor concentrations and three to five concentrations of the chromogenic substrate S-2238 (Chromogenix) (DiMaio and others, 1990, 21698-21703). Inhibition constants were extracted from Lineweaver-Burk equation by using weighted linear regression. Errors in Ki determination were estimated by using Monte-Carlo sampling with 1-3% variance of the experimental points.

Experiment [2] has as its target T1, thrombin. Kind of experiment: Kinetic amidolytic assay with chromogenic substrate S-2238 (inhibition constants). Type of experiment: biochemical. Particulars: 25° C., S-2238, clotting buffer; read-out: KI, nM (25° C.). As for the experimental part:
as §1, with “Peptides were freeze-dried and their identity was confirmed by ion-spray mass spectrometry. Clotting” for “Clotting”, “points. Peptide concentrations were determined spectrophotometrically using predicted extinction coefficients at 278 nm (Gill and von Hippel, 1989, 319-326).” for “points.”

Regarding `CC[C@H](C)[C@H](NC(=O)[C@H](CCC(=O)O)NC(=O)[C@H](CCC(=O)O)NC(=O)[C@H](Cc1ccccc1)NC(=O)[C@H](CC(=O)O)NC(=O)CNC(=O)[C@H](CO)NC(=O)[C@@H](NC(=O)[C@H](CCCCN)NC(=O)[C@H](CCC(=O)O)NC(=O)[C@H](Cc1ccc(O)cc1)NC(=O)[C@H](Cc1c[nH]cn1)NC(=O)[C@@H]1CCCN1C(=O)[C@H](CO)NC(=O)CNC(=O)[C@H]1CCCCN1C(=O)[C@H](CCCNC(=N)N)NS(=O)(=O)c1ccc(C(C)(C)C)cc1)C(C)C)C(=O)N1CCC[C@H]1C(=O)N[C@@H](CCC(=O)O)C(=O)N[C@@H](CCC(=O)O)C(=O)N[C@@H](Cc1ccc(O)cc1)C(=O)N[C@@H](CC(C)C)C(=O)N[C@@H](CCC(N)=O)C(=O)O` [P3169], half-maximal inhibition against thrombin [1] (IC50, nM (25° C.), 25° C.) (IC50) was put at 0.4 nM. The inhibition constant (Ki) (usually the equilibrium dissociation constant of an inhibitor or competing ligand from its target) on thrombin [2] worked out at 1 ± 0.2 nM.

`CC[C@H](C)[C@H](NC(=O)[C@H](CCC(=O)O)NC(=O)[C@H](CCC(=O)O)NC(=O)[C@H](Cc1ccccc1)NC(=O)[C@H](CC(=O)O)NC(=O)CNC(=O)[C@H](CO)NC(=O)CNC(=O)[C@H](CO)NC(=O)CNC(=O)[C@H](CO)NC(=O)CNC(=O)[C@H](CO)NC(=O)CNC(=O)[C@H](CO)NC(=O)CNC(=O)[C@H](CO)NC(=O)CNC(=O)[C@H](CO)NC(=O)CNC(=O)[C@H](CO)NC(=O)CNC(=O)[C@H](CO)NC(=O)CNC(=O)[C@H](CO)NC(=O)CNC(=O)[C@H](CO)NC(=O)CNC(=O)[C@H](CO)NC(=O)CNC(=O)[C@H](CO)NC(=O)CNC(=O)[C@H](CO)NC(=O)CNC(=O)[C@H]1CCCCN1C(=O)[C@H](CCCNC(=N)N)NS(=O)(=O)c1ccc(C(C)(C)C)cc1)C(=O)N1CCC[C@H]1C(=O)N[C@@H](CCC(=O)O)C(=O)N[C@@H](CCC(=O)O)C(=O)N[C@@H](Cc1ccc(O)cc1)C(=O)N[C@@H](CC(C)C)C(=O)N[C@@H](CCC(N)=O)C(=O)O` [P3159]: the IC50 (as a rule, the concentration at which inhibition is half-maximal) against thrombin [1] (IC50, nM (37° C.), 37° C.) is 3.5 ± 0.2 nM. Moreover, the Ki at thrombin [2] was 6.7 ± 1.9 nM. The molecule `CC[C@H](C)[C@H](NC(=O)[C@H](CCC(=O)O)NC(=O)[C@H](CCC(=O)O)NC(=O)[C@H](Cc1ccccc1)NC(=O)[C@H](CC(=O)O)NC(=O)CNC(=O)[C@H](CC(=O)O)NC(=O)[C@H](CC(N)=O)NC(=O)[C@H](Cc1c[nH]cn1)NC(=O)[C@H](CC(C)C)NC(=O)[C@H](CCC(N)=O)NC(=O)[C@@H]1CCCN1C(=O)[C@H](CCCNC(=N)N)NC(=O)[C@@H]1CCCN1C(=O)[C@@H](NC(=O)[C@@H](NC(=O)[C@H](CO)NC(=O)CNC(=O)[C@H]1CCCCN1C(=O)[C@H](CCCNC(=N)N)NS(=O)(=O)c1ccc(C(C)(C)C)cc1)C(C)C)C(C)C)C(=O)N1CCC[C@H]1C(=O)N[C@@H](CCC(=O)O)C(=O)N[C@@H](CCC(=O)O)C(=O)N[C@@H](Cc1ccc(O)cc1)C(=O)N[C@@H](CC(C)C)C(=O)N[C@@H](CCC(N)=O)C(=O)O` [P3209] had an IC50 on thrombin [1] (IC50, nM (37° C.), 37° C.) of 1.1 nM. Turning to `CC[C@H](C)[C@H](NC(=O)[C@H](CCC(N)=O)NC(=O)[C@@H]1CCCN1C(=O)[C@H](CCCNC(=N)N)NC(=O)[C@@H]1CCCN1C(=O)[C@H](C)NC(=O)[C@H](Cc1c[nH]cn1)NC(=O)[C@H](CO)NC(=O)CNC(=O)[C@H]1CCCCN1C(=O)[C@H](CCCNC(=N)N)NS(=O)(=O)c1ccc(C(C)(C)C)cc1)C(=O)N[C@@H](Cc1c[nH]cn1)C(=O)N[C@@H](CC(N)=O)C(=O)N[C@@H](CC(=O)O)C(=O)NCC(=O)N[C@@H](CC(=O)O)C(=O)N[C@@H](Cc1ccccc1)C(=O)N[C@@H](CCC(=O)O)C(=O)N[C@@H](CCC(=O)O)C(=O)N[C@H](C(=O)N1CCC[C@H]1C(=O)N[C@@H](CCC(=O)O)C(=O)N[C@@H](CCC(=O)O)C(=O)N[C@@H](Cc1ccc(O)cc1)C(=O)N[C@@H](CC(C)C)C(=O)N[C@@H](CCC(N)=O)C(=O)O)[C@@H](C)CC` [P3210], at thrombin [1] (IC50, nM (37° C.), 37° C.), the IC50 was determined as 0.6 nM. For the molecule `CC[C@H](C)[C@H](N)C(=O)N[C@@H](CCCNC(=N)N)C(=O)N[C@@H](Cc1ccccc1)C(=O)N[C@H](C(=O)N[C@@H](CC(=O)O)C(=O)NCC(=O)N[C@@H](C)C(=O)N[C@@H](CCCCN)C(=O)N[C@H](C(=O)N[C@H](C(=O)N[C@@H](CCSC)C(=O)N[C@H](C(=O)N[C@@H](CS)C(=O)N[C@@H](CO)C(=O)N[C@@H](C)C(=O)N[C@@H](CO)C(=O)NCC(=O)N[C@@H](CC(=O)O)C(=O)N[C@@H](Cc1ccccc1)C(=O)N[C@@H](CCC(=O)O)C(=O)N[C@@H](CCC(=O)O)C(=O)N[C@H](C(=O)N1CCC[C@H]1C(=O)N[C@@H](CCC(=O)O)C(=O)N[C@@H](CCC(=O)O)C(=O)N[C@@H](Cc1ccc(O)cc1)C(=O)N[C@@H](CC(C)C)C(=O)N[C@@H](CCC(N)=O)C(=O)O)[C@@H](C)CC)[C@@H](C)O)[C@@H](C)O)C(C)C)[C@@H](C)O` [mini-hirudin 3], it took 10 ± 1 nM to reach half-maximal inhibition at thrombin [1] (IC50, nM (37° C.), 37° C.) (IC50). In the case of `CC[C@H](C)[C@H](NC(=O)[C@H](CCC(=O)O)NC(=O)[C@H](CCC(=O)O)NC(=O)[C@H](Cc1ccccc1)NC(=O)[C@H](CC(=O)O)NC(=O)CNC(=O)[C@H](CCCNC(=N)N)NC(=O)[C@H](CC(N)=O)NC(=O)[C@H](Cc1c[nH]cn1)NC(=O)[C@H](CO)NC(=O)[C@H](CCC(N)=O)NC(=O)CNC(=O)[C@H]1CCCCN1C(=O)[C@H](CCCNC(=N)N)NS(=O)(=O)c1ccc(C(C)(C)C)cc1)C(=O)N1CCC[C@H]1C(=O)N[C@@H](CCC(=O)O)C(=O)N[C@@H](CCC(=O)O)C(=O)N[C@@H](Cc1ccc(O)cc1)C(=O)N[C@@H](CC(C)C)C(=O)N[C@@H](CCC(N)=O)C(=O)O` [P3238], the IC50 against thrombin [1] (IC50, nM (37° C.), 37° C.) was 2 ± 1 nM.
